Data set [1] can be described thus: selectivity index expressed as TC50/EC50; EC50 values are calculated from […] cells infected with HIV-1LAI. In kind it is functional.
Data set [2] can be described thus: selectivity index = TC50/EC50. The EC50 values are calculated from CEM lymphoblast cells infected with HIV-1LAI virus. In kind it is functional, CCRF-CEM.
A short description of data set [3]: compound was tested for 50% toxic concentration by flow cytometry after propidium iodide staining after 3 days of drug treatment in CEM lymphoblast cells. The note with it: human, read-out: TC50. On the technique in general: Flow cytometry measures light scatter and fluorescence of single cells or particles in a stream.
In data set [4] the test system is HeLa. As to the kind of experiment: Compound was tested for Anti-HIV activity by plaque reduction assay with wild type HIV-1LAI virus in HT4-6C human CD4+ […]. In kind it is functional, cell-based. (In a plaque reduction assay, fewer plaques than in the control indicate reduced infectivity or spread.)
For data set [5], the system named is HeLa. As to the kind of experiment: compound was tested for 50% toxic concentration by visual grading scale of cells after 3 days of drug treatment in HT4-6C cells. In kind it is functional. The conditions noted are these: Homo sapiens, 72 h, read-out: TC50 (the source's name).
Data set [6] has as its system HeLa. The data set is described as follows: Compound was tested for Anti-HIV activity by plaque reduction assay with E89K virus in HT4-6C human CD4+ […]. In kind it is functional, cell-based.
The subject of data set [7] is HeLa. As to the kind of experiment: Compound was tested for Anti-HIV activity by plaque reduction assay with A018-post virus in HT4-6C human CD4+ […]. In kind it is functional, cell-based.
Data set [8] can be described thus: selectivity index expressed as TC50/EC50; EC50 values are calculated from HT4-6C cells infected with HIV-1LAI virus.

One may read the EC50 as the concentration at which the effect is half-maximal. Lower therefore signals a more potent agent. `CCCCCCCCCCCCCCCCCCCCOC(=O)P(=O)(O)OC[C@H]1O[C@@H](n2cc(C)c(=O)[nH]c2=O)C[C@@H]1N=[N+]=[N-].N`: the figures for the Selectivity index in data set [1] and in data set [2] were 228 and 257, respectively. Moreover, the CC50 at 72 h in data set [3] turned out to be 36 µM. In addition, the EC50 in data set [4] is 0.14 µM; in data set [6] it was 0.009 µM; in data set [7], 0.53 µM. In data set [5], the CC50 was found to be 32 µM.
`CCCCCCCCCCCCCCCCCCCCCCOC(=O)P(=O)(O)OC[C@H]1O[C@@H](n2cc(C)c(=O)[nH]c2=O)C[C@@H]1N=[N+]=[N-].N`: the Selectivity index is on record as 1000 in data set [1] and 291 in data set [2]. The CC50 at 72 h in data set [3] is 93 µM. In addition, the results for the EC50 in data set [4], in data set [6] and in data set [7] were 0.32 µM, 0.17 µM and 0.77 µM, respectively. In data set [5], the CC50 stood at 320 µM.
On to `CCCCCCCCCCCCCCCCCCOC(=O)P(=O)(O)OC[C@H]1O[C@@H](n2cc(C)c(=O)[nH]c2=O)C[C@@H]1N=[N+]=[N-].N`, for which the Selectivity index was 100 in data set [1] and 280 in data set [8]. For the same compound, the CC50 at 72 h in data set [3] amounted to 28 µM. Moreover, the EC50 amounted to 0.1 µM in data set [4], 0.13 µM in data set [6] and 0.3 µM in data set [7]. Moreover, the CC50 in data set [5] turned out to be 10 µM.
Regarding `O=C(O)P(=O)(O)O` [FOSCARNET], the Selectivity index in data set [1] was greater than 7.5; in data set [8] it was 6. Further, the CC50 at 72 h in data set [3] was found to be 800 µM. Further, the EC50 in data set [4] was 133 µM; in data set [6], greater than 1000 µM; in data set [7], 65 µM. In addition, in data set [5], the CC50 worked out at 1000 µM.
Take `Cc1cn([C@H]2C[C@H](N=[N+]=[N-])[C@@H](CO)O2)c(=O)[nH]c1=O` [ZIDOVUDINE]: the values for the EC50 in data set [4], in data set [6] and in data set [7] were 0.013 µM, 0.009 µM and 2.9 µM, respectively.
